Experimental data reported in US20240285670A1, “THERAPEUTIC TREATMENT OF TUMORS BY BLOCKING THE HEME SYNTHESIS-EXPORT AXIS” (Università degli Studi di Torino, priority 2021, published 2024).

Key:
Type in all cases: cell-based, human
[1] = test system: Caco2 cells; assay: Proliferation of Caco2 cells (crystal violet staining, cell viability); settings: FLVCR1a-silenced vs scramble shRNA Caco2 cells
Text: (A) Proliferation of Caco2 cells assessed by crystal violet staining at the indicated days; bar=1000 μm. […] Staining quantification is reported in the bar graph as percentage of crystal violet stained area. Data represent mean±SEM, n=4. For statistical analyses, a two-way analysis of variance was used, followed by the Bonferroni correction for multiple group comparisons; *=p<0.05, ***=p<0.001. (B) Caco2 cells viability the day of plating (day 0) and three days after plaiting (day 3). The measure is considered a readout of cell proliferation. […] Data represent mean±SEM, n=3 wells. For statistical analyses, a two-way analysis of variance was used, followed by the Bonferroni correction for multiple group comparisons; *=p<0.05, **=p<0.01. (C, D, E) Representative flow cytometric analyses of apoptosis in synchronized Caco2 (C), SKCO1 (D) and C80 (E) cells. […]
To assess cell viability, the CellTiter-Fluor Cell Viability Assay (Promega, Madison, WI USA, catalog n°G6080) was used. […] The detection of cell viability at different consecutive time points was regarded as a readout of cell proliferation.
For crystal violet staining, 1*10^4 Caco2 cells were seeded in 6-well plates. […] Stained area was assessed by analyses of four representative photos per day for each triplicate using Fiji open source software (Schindelin et al., 2012) (http://fiji.sc/ RRID:SCR_002285).

[2] = test system: C80 cells; assay: Flow cytometric analysis of apoptosis in C80 cells; settings: FLVCR1a-silenced vs scramble shRNA, synchronized C80 cells
Text: (A) Proliferation of Caco2 cells assessed by crystal violet staining at the indicated days; bar=1000 μm. […] Staining quantification is reported in the bar graph as percentage of crystal violet stained area. Data represent mean±SEM, n=4. For statistical analyses, a two-way analysis of variance was used, followed by the Bonferroni correction for multiple group comparisons; *=p<0.05, ***=p<0.001. (B) Caco2 cells viability the day of plating (day 0) and three days after plaiting (day 3). The measure is considered a readout of cell proliferation. […] Data represent mean±SEM, n=3 wells. For statistical analyses, a two-way analysis of variance was used, followed by the Bonferroni correction for multiple group comparisons; *=p<0.05, **=p<0.01. (C, D, E) Representative flow cytometric analyses of apoptosis in synchronized Caco2 (C), SKCO1 (D) and C80 (E) cells. […] Data represent mean±SEM, n=4 wells pooled from two independent experiments. For statistical analyses, an unpaired Student's t-test was used; *=p<0.05, **=p<0.01. […]
Stained cells were analyzed using a FACSCanto II cytofluorimeter and processed with BD FACSDIVA Software v8.1 (BD Biosciences, Milan, IT; http://www.bdbiosciences.com/instruments/software/facsdiva/index.jsp/ RRID:SCR_001456), acquiring at least 10,000 events per sample or 25,000 cells per sample for cell cycle experiments.

[3] = test system: Caco2 cells; assay: Heme content (fluorescence assay) in Caco2 cells; settings: FLVCR1a-silenced vs scramble shRNA Caco2 cells, 5 mM 5-ALA, time course
Protocol: (A) Heme content in Caco2 cells treated with 5 mM 5-ALA (black bars and white bars) or with 5 mM 5-ALA+0.5 mM SA (light grey outlined bars) for the indicated time points. […] Values are expressed as relative fluorescence intensity. Data represent mean±SEM, n=2. For statistical analyses, a two-way analysis of variance was used, followed by the Bonferroni correction for multiple group comparisons; **=p<0.01, ***=p<0.001. 5-ALA, 5-aminolevulinic acid; SA, succinylacetone. (B) Intracellular 5-ALA levels. […] Values are expressed as peak area/μg proteins. Data represent mean±SEM of n=4 wells pooled from two independent experiments. For statistical analyses, an unpaired Student's t-test was used; **=p<0.01. 5-ALA, 5-aminolevulinic acid. […] Values are expressed as peak area/μg proteins. […] Transcript abundance, normalized to beta-actin mRNA expression, is expressed as a fold increase over a calibrator sample. […] Band intensities were measured by densitometry and normalized to vinculin expression. […]
Intracellular heme concentration was measured using a fluorescence assay, as previously reported (Sinclair et al., 2001). […] Fluorescence (wavelength: excitation 405 nm-emission 660-720 nm) of the resultant protoporphyrin was assessed on a Glomax Multi Detection System (Promega Corporation, Madison WI, USA).
The endogenous protoporphyrin content (measured in parallel unheated samples in oxalic acid) was subtracted. […]

FLVCR1a shRNA: shRNA specifically down-regulating FLVCR1a without targeting FLVCR1b; pLKO.1 lentiviral clone TRCN0000059599, antisense SEQ ID No.: 2 (antisense TTGCTAATGATGCTGTACTGG; sense CCAGTACAGCATCATTAGCAA)
cell proliferation [1]: proliferated more slowly | apoptosis [2]: increased apoptosis | intracellular heme upon induction of heme biosynthesis [3]: faster and higher increase in the amount of intracellular heme than control cells
